Tested on: MG13-hCCR5 cells, FAP-MG2p fluorogen binding, flow cytometry MCF
Assay: FAP-tagged hCCR5 fluorogen binding interference – cell-based, FAP-tagged human CCR5, Powderset5, counter-screen for beta2AR agonist project, dose response (AID 651913)

For `CCC1CCCCN1S(=O)(=O)c1ccc(NC(C)=O)cc1` (stereo not given), the EC50 was 0.455 µM.
Compound `O=C(C1CCCN1S(=O)(=O)c1ccc(Cl)cc1)N1CCN(c2ccccn2)CC1` (stereo not given) has an EC50 of 0.257 µM.
`CN(CC(=O)N1CCN(c2ccccn2)CC1)S(=O)(=O)c1ccc(Cl)cc1` showed an EC50 of 0.0108 µM.
In the case of `CN(CC(=O)N1CCN(c2ccc(F)cc2)CC1)S(=O)(=O)c1cc(Cl)ccc1Cl`, the EC50 is reported as 0.0545 µM.
For `CN(CC(=O)N1CCN(c2ccc(F)cc2)CC1)S(=O)(=O)c1ccc(Br)cc1`, the EC50 was 1.03 µM.

Source: PubChem BioAssay AID651913 (NMMLSC, 2012)
